Test results from paper PMC9964651, “Discovery of Ureido-Based Apcin Analogues as Cdc20-specific Inhibitors against Cancer” (Pharmaceuticals, 2023).
Where a name gives a salt, the structure may show the parent alone. Read-outs that look alike come from different tables or passages of the source.

Legend:
Hela = test: In vitro antiproliferative assay (CCK-8); format: cell-based, human; conditions: CCK-8, 48 h, mean ± SD
Source text: The experiment was repeated three times.

Mda-mb-231 = test: In vitro antiproliferative assay (CCK-8); conditions: read-out: IC50 ± SD Mda-mb-231
Experimental: (§1) Hela and MDA-MB-132 cells were grown in DMEM (Gibco) containing 10% FBS and 1% double antibody (penicillin 100 U/mL, streptomycin 100 μg/mL, Solarbio). […] All cell lines were purchased from the Xiangya Cell Bank, Central South University, Changsha, China, and incubated at 37 °C with 5% CO2 in a humidified atmosphere. […] Cytotoxicity assay was assessed using CCK-8 methods. The cells were seeded in a 96-well plate (2 × 10^3–3 × 10^3 cells/well), the 96-well plate was incubated at 37 °C with 5% CO2 in a humidified atmosphere, and the cells were grown in a monolayer; the original culture was discarded. A total of 100 μL of drug-containing medium with a specific concentration gradient was added and then cultivated for 48 h; 10 μL/well of CCK-8 solution was added, put in an incubator, and incubated for 1 h and read with a multi-function microplate reader at a wavelength of 450 nm. The inhibition rate was calculated, and the IC50 results were calculated by GraphPad Prism 7 software. The experiment was repeated three times.

Mcf-7 = test: In vitro antiproliferative assay (CCK-8); conditions: read-out: IC50 ± SD Mcf-7
Experimental: as §1

Hepg2 = test: In vitro antiproliferative assay (CCK-8); conditions: read-out: IC50 ± SD Hepg2
Experimental: as §1

four cancer-cell lines = test: In vitro antiproliferative assay (CCK-8), cell line not given; conditions: Homo sapiens, read-out: IC50 (antiproliferative activity)

Compound | IC50 (Hela; Homo sapiens, HeLa) | IC50 (Mda-mb-231; Homo sapiens, MDA-MB-231, 48 h) | IC50 (Mcf-7; Homo sapiens, MCF7, 48 h) | IC50 (Hepg2; Homo sapiens, HepG2, 48 h) | IC50 (four cancer-cell lines) | IC50 (Hela) | IC50 (Mda-mb-231; CCK-8, 48 h, mean ± SD) | IC50 (Mcf-7; CCK-8, 48 h, mean ± SD) | IC50 (Hepg2; CCK-8, 48 h, mean ± SD)
O=C(NCCc1ccccc1)NC(Nc1ncc([N+](=O)[O-])cn1)C(Cl)(Cl)Cl (centres unmarked) [Compound 14, 1-phenethyl-3-(2,2,2-trichloro-1-((5-nitropyrimidin-2-yl)amin-o)ethyl)urea] | 79.6 ± 45.2 µM | > 100 µM | 44.7 ± 7.62 µM | 51.8 ± 2.43 µM | – | – | – | – | –
Cc1ccc(S(=O)(=O)NC(=O)NC(Nc2nccc(C(F)(F)F)n2)C(Cl)(Cl)Cl)cc1 (centres unmarked) [Compound 8, 4-methyl-N-((2,2,2-trichloro-1-((4-(trifluoromethyl)pyrimidin-2-yl)amino)ethyl)carbamoyl)benzenesulfonamide] | > 100 µM | > 100 µM | > 100 µM | > 100 µM | – | – | – | – | –
Nc1nc(Cl)cc(NC(NC(=O)NCCc2ccccc2)C(Cl)(Cl)Cl)n1 (centres unmarked) [Compound 25, 1-(1-((2-amino-6-chloropyrimidin-4-yl)amino)-2,2,2-trichloroe-thyl)-3-phenethylurea] | 41.6 ± 8.81 µM | 52.2 ± 0.63 µM | 37.3 ± 1.63 µM | 32.5 ± 6.31 µM | – | – | – | – | –
N#Cc1cnc(NC(NC(=O)NCCc2ccccc2)C(Cl)(Cl)Cl)nc1 (centres unmarked) [Compound 15, 1-phenethyl-3-(2,2,2-trichloro-1-((5-cyanopyrimidin-2-yl)amin-o)ethyl)urea] | > 100 µM | > 100 µM | > 100 µM | > 100 µM | – | – | – | – | –
O=C(NCCc1ccccc1)NC(NNc1nccc(C(F)(F)F)n1)C(Cl)(Cl)Cl (centres unmarked) [Compound 30, 1-phenethyl-3-(2,2,2-trichloro-1-(2-(4-(trifluoromethyl)pyrimi-din-2-yl)hydrazinyl)ethyl)urea] | > 100 µM | 73 ± 42.7 µM | 72.4 ± 30.9 µM | 58 ± 10.6 µM | – | – | – | – | –
Nc1nc(F)nc2c1ncn2C(NC(=O)NCCc1ccccc1)C(Cl)(Cl)Cl (centres unmarked) [Compound 28, 1-(1-(6-amino-2-fluoro-9H-purin-9-yl)-2,2,2-trichloroethyl)-3-phenethylurea] | 0.17 ± 0.08 µM | 0.61 ± 0.12 µM | 0.41 ± 0.05 µM | 0.28 ± 0.13 µM | – | – | – | – | –
Cc1ncc([N+](=O)[O-])n1CCNC(=O)NC(Nc1ncccn1)C(Cl)(Cl)Cl (centres unmarked) [Compound 1, 1-(2-(2-methyl-5-nitro-1H-imidazol-1-yl)ethyl)-3-(2,2,2-trichloro-1-(pyrimidin-2-ylamino)ethyl)urea] | > 100 µM | > 100 µM | > 100 µM | > 100 µM | > 80 µM | – | – | – | –
Cc1cnc(NC(NC(=O)NCCc2ccccc2)C(Cl)(Cl)Cl)nc1 (centres unmarked) [Compound 23, 1-phenethyl-3-(2,2,2-trichloro-1-((5-methylpyrimidin-2-yl)ami-no)ethyl)urea] | > 100 µM | > 100 µM | 60.4 ± 3.91 µM | 67.9 ± 6.74 µM | – | – | – | – | –
1-phenethyl-3-(2,2,2-trichloro-1-((4,6-difluoropyrimidin-2-yl)amino)ethyl)urea [Compound 22] | – | – | – | – | – | 31.9 ± 3.29 µM | 27.81 ± 0.17 µM | 24.8 ± 9.49 µM | 26.13 ± 0.05 µM
CCNC(=O)NC(Nc1ncccn1)C(Cl)(Cl)Cl (centres unmarked) [Compound 5, 1-ethyl-3-(2,2,2-trichloro-1-(pyrimidin-2-ylamino)ethyl)urea] | > 100 µM | > 100 µM | > 100 µM | > 100 µM | > 80 µM | – | – | – | –
Nc1c(Cl)nc(NC(NC(=O)NCCN2CCOCC2)C(Cl)(Cl)Cl)nc1Cl (centres unmarked) [Compound 21, 1-(1-((5-amino-4,6-dichloropyrimidin-2-yl)-l4-azanyl)-2,2,2-trichloroethyl)-3-(2-morpholinoethyl)urea] | > 100 µM | > 100 µM | > 100 µM | > 100 µM | – | – | – | – | –
Cc1ncc([N+](=O)[O-])n1CCNC(=O)NC(n1cnc2c(N)nc(F)nc21)C(Cl)(Cl)Cl (centres unmarked) [Compound 29, 1-(1-(6-amino-2-fluoro-9H-purin-9-yl)-2,2,2-trichloroethyl)-3-(2-(2-methyl-5-nitro-1H-imidazol-1-yl)ethyl)urea] | 0.08 ± 0.01 µM | 0.37 ± 0.07 µM | 0.23 ± 0.09 µM | 0.13 ± 0.05 µM | – | – | – | – | –
O=C(NCCc1ccccc1)NC(Nc1nccc(C(F)(F)F)n1)C(Cl)(Cl)Cl (centres unmarked) [Compound 7, 1-phenethyl-3-(2,2,2-trichloro-1-((4-(trifluoromethyl)pyrimidin-2-yl)aminno16)ethyl)urea] | 34.2 ± 5.16 µM | 34.7 ± 1.23 µM | 21.3 ± 4.52 µM | 20.7 ± 3.6 µM | < 40 µM | – | – | – | –
O=C(NCCc1ccccc1)NC(Nc1nc(Cl)cc(Cl)n1)C(Cl)(Cl)Cl (centres unmarked) [Compound 18, 1-phenethyl-3-(2,2,2-trichloro-1-((4,6-dichloropyrimidin-2-yl)amino)ethyl)urea, sodium salt] | 36.7 ± 1.23 µM | 50.4 ± 3.07 µM | 33.8 ± 1.91 µM | 30.59 ± 0.1 µM | – | – | – | – | –
